pIC50, pKi: −log10 of the molar value. Active and inactive are the calls of the source. The calls are words filed in the database; no cut-off is given here.
Key:
[1] = molecular target: T1, 3-oxoacyl-acyl-carrier protein reductase (Plasmodium falciparum) (UniProt Q965D6); assay: Inhibition of FabG at 100 uM
T1 sequence (whole entry): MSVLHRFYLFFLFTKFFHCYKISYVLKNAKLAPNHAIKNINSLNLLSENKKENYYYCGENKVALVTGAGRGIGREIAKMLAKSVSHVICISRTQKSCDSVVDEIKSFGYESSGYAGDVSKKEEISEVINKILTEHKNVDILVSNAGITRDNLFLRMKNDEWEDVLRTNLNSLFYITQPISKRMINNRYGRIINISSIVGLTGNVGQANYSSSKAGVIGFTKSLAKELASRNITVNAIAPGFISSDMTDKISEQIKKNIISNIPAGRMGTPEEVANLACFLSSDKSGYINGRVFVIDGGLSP

[2] = molecular target: T2, Fatty acid synthase (Plasmodium falciparum) (UniProt Q965D7); assay: Inhibition of FabZ at 100 uM
T2 sequence (whole entry): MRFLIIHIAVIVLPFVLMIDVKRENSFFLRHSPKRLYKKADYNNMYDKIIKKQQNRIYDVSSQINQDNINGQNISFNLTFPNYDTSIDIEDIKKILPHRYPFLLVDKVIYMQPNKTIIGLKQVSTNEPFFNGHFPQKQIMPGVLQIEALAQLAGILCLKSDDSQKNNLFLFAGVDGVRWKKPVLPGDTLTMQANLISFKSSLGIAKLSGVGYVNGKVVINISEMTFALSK

[3] = test system: Plasmodium falciparum; assay: Antiplasmodial activity against chloroquine-sensitive Plasmodium falciparum NF54; type: functional, organism-based
[4] = molecular target: T3, Enoyl-acyl-carrier protein reductase (Plasmodium falciparum) (UniProt Q965D5); assay: Inhibition of FabI at 100 uM
T3 sequence (whole entry): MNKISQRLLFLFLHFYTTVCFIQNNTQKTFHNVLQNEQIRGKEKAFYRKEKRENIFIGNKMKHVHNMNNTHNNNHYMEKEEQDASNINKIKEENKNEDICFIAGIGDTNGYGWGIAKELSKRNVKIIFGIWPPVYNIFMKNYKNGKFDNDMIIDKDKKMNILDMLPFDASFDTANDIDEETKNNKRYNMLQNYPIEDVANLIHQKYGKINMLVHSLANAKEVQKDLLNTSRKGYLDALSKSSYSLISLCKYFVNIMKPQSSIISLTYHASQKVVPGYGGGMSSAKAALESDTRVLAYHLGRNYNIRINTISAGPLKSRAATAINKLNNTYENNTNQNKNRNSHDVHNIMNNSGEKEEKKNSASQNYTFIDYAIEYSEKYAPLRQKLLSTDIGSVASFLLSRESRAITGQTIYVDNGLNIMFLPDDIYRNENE

[5] = molecular target: T4, 3-oxoacyl-acyl-carrier protein reductase (Plasmodium falciparum, UniProt Q965D6); assay: Inhibition of FabG
T4 sequence (Q965D6 whole entry): T1 sequence (whole entry)

[6] = molecular target: T5, Fatty acid synthase (Plasmodium falciparum, UniProt Q965D7); assay: Inhibition of FabZ
T5 sequence (Q965D7 whole entry): T2 sequence (whole entry)

[7] = test system: Plasmodium falciparum; assay: Antiplasmodial activity against chloroquine-resistant Plasmodium falciparum K1; type: functional, organism-based
[8] = molecular target: T6, Enoyl-acyl-carrier protein reductase (Plasmodium falciparum, UniProt Q965D5); assay: Inhibition of FabI
T6 sequence (Q965D5 whole entry): T3 sequence (whole entry)

[9] = molecular target: T4, 3-oxoacyl-acyl-carrier protein reductase; assay: Inhibition of FabG in presence of NADPH
[10] = molecular target: T4, 3-oxoacyl-acyl-carrier protein reductase; assay: Inhibition of FabG in presence of acetoacetyl-CoA

Oc1cc(O)c2c(c1)O[C@@H](c1ccc(O)c(O)c1)[C@@H](O)C2 [(+)-EPICATECHIN]
Activity [1]: inactive | Activity [2]: inactive | pIC50 [3]: < 3.82 | Activity [4]: inactive

O=c1cc(-c2ccccc2)oc2cccc(O)c12 [5-HYDROXYFLAVONE]
Activity [1]: inactive | Activity [2]: inactive | pIC50 [3]: 4.18 | Activity [4]: inactive

COc1cc2c(c(O)c1OC)C(=O)C[C@@H](c1ccc(O)cc1)O2
Activity [1]: inactive | Activity [2]: inactive | pIC50 [3]: 5.06 | Activity [4]: inactive

COc1cc2oc(-c3ccc(O)cc3)cc(=O)c2c(O)c1OC [CIRSIMARITIN]
Activity [2]: inactive | pIC50 [5]: 4.15 | pIC50 [3]: 4.77 | Activity [4]: inactive

O=c1cc(-c2ccccc2)oc2ccccc12 [FLAVONE]
Activity [1]: inactive | Activity [2]: inactive | pIC50 [3]: 4.22 | Activity [4]: inactive

O=C(O[C@@H]1Cc2c(O)cc(O)cc2O[C@H]1c1cc(O)c(O)c(O)c1)c1cc(O)c(O)c(O)c1 [GALLOCATECHIN GALLATE]
pIC50 [6]: 6.22 | pIC50 [7]: 5.21 | pIC50 [8]: 6.30 | pIC50 [3]: 4.40

O=c1c(O)c(-c2ccccc2)oc2cc(O)ccc12 [3,7-DIHYDROXYFLAVONE]
Activity [1]: inactive | pIC50 [8]: 5.00 | Activity [2]: inactive | pIC50 [3]: 4.31

O=c1c(O)c(-c2ccc(O)cc2)oc2cc(O)cc(O)c12 [KAEMPFEROL]
pIC50 [8]: 4.70 | Activity [2]: inactive | pIC50 [5]: 5.40 | pIC50 [3]: 4.52

COc1ccc(-c2cc(=O)c3c(O)c(O)c(OC)cc3o2)cc1 [LADANEIN]
Activity [1]: inactive | Activity [2]: inactive | pIC50 [3]: 5.05 | Activity [4]: inactive

O=c1c(O)c(-c2ccccc2)oc2ccc(O)cc12
Activity [1]: inactive | Activity [2]: inactive | pIC50 [3]: 4.44 | Activity [4]: inactive

O=c1cc(-c2ccc(O)cc2)oc2cc(O)cc(O)c12 [APIGENIN]
Activity [1]: inactive | pIC50 [8]: 4.30 | Activity [2]: inactive | pIC50 [3]: 4.76

COc1cc(OC)c2c(c1C)O[C@H](c1ccccc1)CC2=O
Activity [1]: inactive | pIC50 [6]: 4.40 | pIC50 [3]: 4.70 | Activity [4]: inactive

O=c1c(O)c(-c2ccccc2)oc2cc(O)cc(O)c12 [GALANGIN]
Activity [2]: inactive | pIC50 [5]: 4.00 | pIC50 [3]: 4.40 | Activity [4]: inactive

COc1ccc(-c2coc3cc(O)cc(O)c3c2=O)cc1 [BIOCHANIN]
Activity [1]: inactive | pIC50 [6]: 5.10 | pIC50 [3]: 4.46 | Activity [4]: inactive

O=C(O[C@@H]1Cc2c(O)cc(O)cc2O[C@@H]1c1ccc(O)c(O)c1)c1cc(O)c(O)c(O)c1 [EPICATECHIN GALLATE]
pIC50 [6]: 6.40 | pIC50 [7]: 4.95 | pIC50 [8]: 6.70 | pIC50 [5]: 6.00 | pIC50 [3]: 4.40

O=c1c(O)c(-c2ccc(O)c(O)c2)oc2cc(O)ccc12 [FISETIN]
pIC50 [6]: 5.70 | pIC50 [7]: 5.19 | pIC50 [8]: 6.00 | pIC50 [5]: 5.39 | pIC50 [3]: 5.09

Oc1cc(O)c2c(c1)O[C@H](c1cc(O)c(O)c(O)c1)[C@H](O)C2 [EPIGALLOCATECHIN]
Activity [1]: inactive | Activity [2]: inactive | pIC50 [3]: < 3.82 | Activity [4]: inactive

O=c1c(O)c(-c2ccccc2)oc2ccccc12 [FLAVONOL]
Activity [1]: inactive | Activity [2]: inactive | pIC50 [3]: 4.62 | Activity [4]: inactive

O=c1c(-c2ccc(O)cc2)coc2cc(O)cc(O)c12 [GENISTEIN]
Activity [1]: inactive | pIC50 [6]: 5.15 | pIC50 [3]: 4.42 | Activity [4]: inactive

COc1cc(O)c2c(=O)c(OC)c(-c3ccc(OC)c(OC)c3)oc2c1 [RETUSIN]
Activity [1]: inactive | Activity [2]: inactive | pIC50 [3]: 4.13 | Activity [4]: inactive

Oc1cc(O)c2c(c1)O[C@@H](c1ccc(O)c(O)c1)[C@H](O)C2 [(-)-CATECHIN]
Activity [1]: inactive | Activity [2]: inactive | pIC50 [3]: < 3.82 | Activity [4]: inactive

COc1cc(-c2oc3cc(O)cc(O)c3c(=O)c2O)ccc1O [ISORHAMNETIN]
pIC50 [8]: 5.30 | Activity [2]: inactive | pIC50 [5]: 5.08 | pIC50 [3]: 4.83

COc1cc(O)c2c(=O)cc(-c3ccc(O)cc3)oc2c1 [GENKWANIN]
Activity [1]: inactive | Activity [2]: inactive | pIC50 [3]: 3.95 | Activity [4]: inactive

O=C1C[C@@H](c2ccc(O)cc2)Oc2cc(O)cc(O)c21 [NARINGENIN]
Activity [1]: Active | Activity [2]: inactive | pIC50 [3]: 3.85 | Activity [4]: inactive

Oc1cc(O)c2c(c1)O[C@H](c1ccc(O)c(O)c1)[C@@H](O)C2 [CIANIDANOL]
Activity [1]: inactive | Activity [2]: inactive | pIC50 [3]: 3.84 | Activity [4]: inactive

O=c1cc(-c2ccccc2)oc2cc(O)cc(O)c12 [CHRYSIN]
Activity [2]: inactive | pIC50 [5]: 5.00 | pIC50 [3]: 4.53 | Activity [4]: inactive

Oc1cc(O)c2c(c1)O[C@@H](c1cc(O)c(O)c(O)c1)[C@H](O)C2 [(-)-GALLOCATECHIN]
Activity [1]: inactive | Activity [2]: inactive | pIC50 [3]: < 3.82 | Activity [4]: inactive

O=c1c(O)c(-c2ccc(O)cc2O)oc2cc(O)cc(O)c12 [MORIN]
pIC50 [6]: 5.10 | pIC50 [7]: 4.79 | pIC50 [8]: 5.30 | pIC50 [5]: 5.64 | pIC50 [3]: 3.96

O=C(O[C@@H]1Cc2c(O)cc(O)cc2O[C@@H]1c1cc(O)c(O)c(O)c1)c1cc(O)c(O)c(O)c1 [EPIGALOCATECHIN GALLATE]
pIC50 [6]: 6.40 | pIC50 [7]: 5.00 | pIC50 [8]: 6.70 | pIC50 [3]: 4.59

COc1ccc2c(=O)cc(-c3ccccc3)oc2c1OC
Activity [1]: inactive | Activity [2]: inactive | pIC50 [3]: 4.39 | Activity [4]: inactive

Oc1cc(O)c2c(c1)O[C@H](c1ccc(O)c(O)c1)[C@H](O)C2 [(-)-EPICATECHIN]
Activity [1]: inactive | Activity [2]: inactive | pIC50 [3]: < 3.82 | Activity [4]: inactive

O=c1c(O)c(-c2cc(O)c(O)c(O)c2)oc2cc(O)cc(O)c12 [MYRICETIN]
pIC50 [6]: 5.70 | pIC50 [7]: 4.89 | pIC50 [8]: 6.40 | pIC50 [5]: 4.85 | pIC50 [3]: 4.24

O=c1cc(-c2ccc(O)c(O)c2)oc2cc(O)cc(O)c12 [LUTEOLIN]
pKi [9]: 6.10 | pIC50 [6]: 5.30 | pKi [6]: 4.94 | pIC50 [7]: 5.02 | pIC50 [8]: 5.70 | pKi [8]: 5.68 | pIC50 [5]: 5.40 | pKi [10]: 5.74 | pIC50 [3]: 4.97

O=C(O[C@@H]1Cc2c(O)cc(O)cc2O[C@H]1c1ccc(O)c(O)c1)c1cc(O)c(O)c(O)c1 [(-)-CATECHINGALLATE]
pKi [9]: 5.55 | pIC50 [6]: 6.40 | pKi [6]: 5.55 | pIC50 [7]: 6.40 | pIC50 [8]: 6.52 | pKi [8]: 7.40 | pIC50 [5]: 6.00 | pKi [10]: 5.19 | pIC50 [3]: 5.49

O=c1cc(-c2ccccc2)oc2cc(O)ccc12 [7-HYDROXYFLAVONE]
Activity [1]: inactive | pIC50 [6]: 4.70 | pIC50 [3]: 4.18 | Activity [4]: inactive

O=c1c(O)c(-c2ccc(O)c(O)c2)oc2cc(O)cc(O)c12 [QUERCETIN]
pIC50 [6]: 5.82 | pIC50 [7]: 5.05 | pIC50 [8]: 5.82 | pIC50 [5]: 5.27 | pIC50 [3]: 5.00

O=c1c(-c2ccc(O)cc2)coc2cc(O)ccc12 [DAIDZEIN]
Activity [1]: inactive | pIC50 [6]: 4.52 | pIC50 [3]: 3.98 | Activity [4]: inactive

O=c1cc(-c2ccccc2)oc2ccc(O)cc12 [6-HYDROXYFLAVONE]
Activity [1]: inactive | pIC50 [6]: 4.52 | pIC50 [3]: 5.28 | Activity [4]: inactive

Reference: ChEMBL document CHEMBL1148505, “Inhibition of Plasmodium falciparum fatty acid biosynthesis: evaluation of FabG, FabZ, and FabI as drug targets for flavonoids” (J Med Chem, 2006)
